Measured values as given in patent US20100298300A1, “TRIAZOLOPYRAZINE COMPOUNDS USEFUL FOR THE TREATMENT OF DEGENERATIVE & INFLAMMATORY DISEASES” (priority 2006, published 2010).

Columns and labels:
MAPKAPK5 = target: T1, MAPKAPK5 (Homo sapiens, UniProt Q8IW41); assay: MAPKAP-K5 assay (FlashPlate kinase assay)
T1 sequence (Q8IW41 1-471 isoform Q8IW41-2): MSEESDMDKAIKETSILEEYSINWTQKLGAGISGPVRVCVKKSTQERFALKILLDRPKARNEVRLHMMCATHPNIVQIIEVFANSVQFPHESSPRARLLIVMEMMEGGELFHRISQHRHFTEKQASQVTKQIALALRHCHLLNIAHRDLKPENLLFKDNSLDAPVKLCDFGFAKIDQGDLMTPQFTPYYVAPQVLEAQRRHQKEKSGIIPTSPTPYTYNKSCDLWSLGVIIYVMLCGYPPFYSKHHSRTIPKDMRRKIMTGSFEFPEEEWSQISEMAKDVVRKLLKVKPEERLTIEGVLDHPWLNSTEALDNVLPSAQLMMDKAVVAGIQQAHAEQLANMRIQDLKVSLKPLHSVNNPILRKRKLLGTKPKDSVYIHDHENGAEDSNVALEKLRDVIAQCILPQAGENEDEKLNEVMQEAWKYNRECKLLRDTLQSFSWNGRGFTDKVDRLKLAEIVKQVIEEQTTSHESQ
Description: MAPKAP-K5 reactions are performed in FlashPlate format using 0.1 or 0.2 μCi 33P-ATP; 0.6 μM ATP; 1 mU MAPKAP-K5; 3 μM MAPKAP-K5 peptide substrate, incubated at room temperature for 30 minutes.
The MAPKAP-K5 kinase reaction is performed in a 384 well polypropylene plate (Matrix Technologies) and then transferred to a streptavidin-coated 384 well flashplate (Perkin-Elmer).
To wells containing 2 μL test compound or standard inhibitor, 13 μL Enzyme mix or diluent are added using a Hydra (Robbins Scientific).
Reactions are started by addition of 10 μL of [2,5×] substrate cocktail using a Multidrop (Thermo-Labsystems), to give final concentrations in the assay of:
Plates are incubated at room temperature for 30 minutes.
Reactions are terminated by the addition of 25 μL EDTA (50 mM) to each well using a Micro-fill (Biotek).
Reactions are transferred to a streptavidin-coated flashplate using a Zymark robotic system. Plates are incubated for 60 minutes at room temperature.
All wells are washed 3 times with 100 μl phosphate buffered saline using a Tecan plate washer.
Radioactivity is determined by scintillation counting of the flashplate (empty wells) on a Packard TopCount.
Enzyme Mix: • Enzyme • 50 mM Tris Hcl (pH 7.5) • 0.1 mM EGTA • 2 mM DTT • 1 mg/mL BSA
Reaction Buffer: • 50 mM Tris Hcl (pH 7.5) • 0.1 mM EGTA • 10 mM Magnesium acetate • 2 mM DTT

[1] = test system: MMP1 expression by activated primary synovial fibroblasts; assay: 'MMP assay': MMP1 expression by complex trigger activated synovial fibroblasts (MMP1 ELISA); assay type: cell-based; details: Homo sapiens, Fibroblast, RASFs, complex trigger, 48 hrs, MMP1 ELISA

| Compound | IC50 (MAPKAPK5) [µM] | EC50 ([1]; Table 3) [µM] | EC50 ([1]; Table 4) [µM] |
| --- | --- | --- | --- |
| CC(C)N1CCN(c2ccc(Nc3ncc(-c4ccc5c(c4)C(C)(C)NC5=O)n4ncnc34)cc2)CC1 [Compound 114, 5-{8-[4-(4-Isopropylpiperazin-1-yl)-phenylamino]-[1,2,4]triazolo[1,5-a]pyrazin-5-yl}-3,3-dimethyl-2,3-dihydroisoindol-1-one] | > 1 | > 1 | – |
| CN(Cc1ccccc1)C(=O)c1cccc(Nc2ncc(-c3cn[nH]c3)n3ncnc23)c1 [Compound 134, N-Benzyl-N-methyl 3-[5-(1H-pyrazol-4-yl)-[1,2,4]triazolo[1,5-a]pyrazin-8-ylamino]benzamide] | > 1 | – | 0.501 to 1 |
| CC1(C)OCC(CNC(=O)c2ccc(Nc3ncc(-c4cn[nH]c4)n4ncnc34)cc2)O1 (stereo not drawn) [Compound 161] | 0.501 to 1 | – | > 1 |
| O=C(NCc1cc(-c2ccccc2)on1)c1ccc(Nc2ncc(-c3ccc4c(c3)CNC4=O)n3ncnc23)cc1 [Compound 197] | > 1 | – | > 1 |
| CC(=O)N(C)C1CCN(C(=O)c2ccc(Nc3ncc(-c4cn[nH]c4)n4ncnc34)cc2)C1 (stereo not drawn) [Compound 143] | 0.501 to 1 | – | > 1 |
| CCN(CCOC)C(=O)c1ccc(Nc2ncc(-c3cn[nH]c3)n3ncnc23)cc1 [Compound 157] | > 1 | – | > 1 |
| O=C(Nc1ccc(N2CCOCC2)nc1)c1ccc(Nc2ncc(-c3cn[nH]c3)n3ncnc23)cc1 [Compound 194] | > 1 | – | 0.501 to 1 |
| O=C(NCc1ccc(O)cc1)c1cccc(Nc2ncc(-c3cn[nH]c3)n3ncnc23)c1 [Compound 131, N-(4-Hydroxybenzyl) 3-[5-(1H-pyrazol-4-yl)-[1,2,4]triazolo[1,5-a]pyrazin-8-ylamino]benzamide] | > 1 | – | 0.501 to 1 |
| CC(C)N1CCN(c2ccc(Nc3ncc(-c4cccc5c4CNC5=O)n4ncnc34)cn2)CC1 [Compound 98] | > 1 | > 1 | – |
| COc1cc(Nc2ncc(-c3cn[nH]c3)n3ncnc23)ccc1C(=O)NCc1ccccc1 [Compound 122, N-Benzyl-2-methoxy-4-[5-(1H-pyrazol-4-yl)-[1,2,4]triazolo[1,5-a]pyrazin-8-ylamino]-benzamide] | > 1 | – | > 1 |
| O=C(NCCO)c1ccc(Nc2ncc(-c3cn[nH]c3)n3ncnc23)cc1 [Compound 166] | 0.501 to 1 | – | > 1 |
| O=C(c1ccc(Nc2ncc(-c3cn[nH]c3)n3ncnc23)cc1)N1CC=CC1 [Compound 140] | 0.501 to 1 | – | > 1 |
| CC(C)N1CCN(c2ccc(Nc3ncc(-c4ccc5c(c4)CNC5=O)n4ncnc34)cc2)C(=O)C1 [Compound 112, 5-(8-(4-(4-Isopropyl-2-oxopiperazin-1-yl)phenylamino)-[1,2,4]triazolo[1,5-a]pyrazin-5-yl)isoindolin-1-one] | 0.101 to 0.5 | > 1 | – |
| NC(=O)c1cccc(Nc2ncc(-c3cn[nH]c3)n3ncnc23)c1 [Compound 128] | > 1 | – | > 1 |
| O=C1CNCCN1c1ccc(Nc2ncc(-c3cn[nH]c3)n3ncnc23)cc1 [Compound 100, 1-(4-(5-(1H-Pyrazol-4-yl)-[1,2,4]triazolo[1,5-a]pyrazin-8-ylamino)phenyl)piperazin-2-one] | > 1 | > 1 | – |
| NC(=O)c1cccc2c(-c3cnc(Nc4ccc(N5CCOCC5)cc4)c4ncnn34)csc12 [Compound 80, 3-[8-(4-Morpholin-4-ylphenylamino)-[1,2,4]triazolo[1,5-a]pyrazin-5-yl]-benzo[b]thiophene-7-carboxylic acid amide] | > 1 | 0.101 to 0.5 | – |
| CC(C)(C)NC(=O)N1CCC(Nc2ncc(-c3ccc4c(c3)CNC4=O)n3ncnc23)CC1 [Compound 178] | 0.501 to 1 | > 1 | – |
| COc1cc(Nc2ncc(-c3csc(C(N)=O)c3)n3ncnc23)ccc1C(=O)NCc1ccc(C)nc1 [Compound 121] | > 1 | – | > 1 |
| O=C(N[C@H]1CCN(Cc2ccccc2)C1)c1ccc(Nc2ncc(-c3ccc4c(c3)CNC4=O)n3ncnc23)cc1 [Compound 196] | 0.101 to 0.5 | – | > 1 |
| Cc1sc(C(N)=O)cc1-c1cnc(Nc2ccc(N3CCN(C(C)C)CC3)cc2)c2ncnn12 [Compound 95] | > 1 | > 1 | – |
| CC(C)N1CCN(C(=O)c2cccc(Nc3ncc(-c4cn[nH]c4)n4ncnc34)c2)CC1 [Compound 127, (4-Isopropylpiperazin-1-yl)-{3-[5-(1H-pyrazol-4-yl)-[1,2,4]triazolo[1,5-a]pyrazin-8-ylamino]phenyl}methanone] | 0.501 to 1 | – | > 1 |
| O=C(Nc1ccc(N2CCOCC2)nc1)c1ccc(Nc2ncc(-c3ccc4c(c3)CNC4=O)n3ncnc23)cc1 [Compound 193] | > 1 | – | > 1 |
| OCc1cc(-c2cnc(Nc3ccc(N4CCOCC4)cc3)c3ncnn23)ccn1 [Compound 82] | > 1 | > 1 | – |

More lines, main results first:

| IC50 (MAPKAPK5) [µM] | Compound | EC50 ([1]; Table 3) [µM] | EC50 ([1]; Table 4) [µM] |
| --- | --- | --- | --- |
| > 1 | Nc1nccn1-c1ncc(-c2ccc3c(c2)CNC3=O)n2ncnc12 [Compound 168] | > 1 | – |
| 0.501 to 1 | NC(=O)c1cc(-c2cnc(Nc3ccc(NC(=O)Cc4ccccc4)nc3)c3ncnn23)cs1 [Compound 167, 4-[8-(6-Phenylacetylamino-pyridin-3-ylamino)-[1,2,4]triazolo[1,5-a]pyrazin-5-yl]-thiophene-2-carboxylic acid amide] | – | > 1 |
| > 1 | CC(C)N1CCN(c2ccc(Nc3ncc(-c4cc5c(cn4)C(=O)NC5)n4ncnc34)cc2)CC1 [Compound 173] | > 1 | – |
| > 1 | c1nc2c(Nc3ccc(N4CCOCC4)cc3)ncc(-c3ccc4cn[nH]c4c3)n2n1 [Compound 93] | > 1 | – |
| 0.501 to 1 | CSCCNC(=O)c1ccc(Nc2ncc(-c3cn[nH]c3)n3ncnc23)cc1 [Compound 160] | – | > 1 |
| > 1 | CCN(CC)C(=O)c1cccc(Nc2ncc(-c3cn[nH]c3)n3ncnc23)c1 [Compound 125] | – | > 1 |
| > 1 | CCOC(=O)CN(Cc1ccccc1)C(=O)c1ccc(Nc2ncc(-c3cn[nH]c3)n3ncnc23)cc1 [Compound 154] | – | > 1 |
| 0.501 to 1 | CCN1CCCC1CNC(=O)c1ccc(Nc2ncc(-c3cn[nH]c3)n3ncnc23)cc1 (stereo not drawn) [Compound 139] | – | > 1 |
| > 1 | CC(C)N1CCN(c2ccc(Nc3ncc(-c4ccnc(CO)c4)n4ncnc34)cc2)CC1 [Compound 83, (4-{8-[4-(4-Isopropylpiperazin-1-yl)-phenylamino]-[1,2,4]triazolo[1,5-a]pyrazin-5-yl}pyridin-2-yl)methanol] | > 1 | – |
| 0.101 to 0.5 | O=C1NCc2oc(-c3cnc(Nc4ccc(N5CCOCC5)cc4)c4ncnn34)cc21 [Compound 111] | > 1 | – |
| > 1 | CC(C)CNC(=O)c1ccc(Nc2ncc(-c3cn[nH]c3)n3ncnc23)cc1 [Compound 164] | – | > 1 |
| 0.101 to 0.5 | O=C1NCc2cc(-c3cnc(NC4CCC4)c4ncnn34)ccc21 [Compound 182] | > 1 | – |
| > 1 | O=C(NCC1CCCCC1)c1cccc(Nc2ncc(-c3cn[nH]c3)n3ncnc23)c1 [Compound 130] | – | > 1 |
| > 1 | CC(C)N1CCN(c2ccc(Nc3ncc(-c4cccc5c4CNC5=O)n4ncnc34)cc2)CC1 [Compound 97] | > 1 | – |
| 0.501 to 1 | O=C(NCCc1ccncc1)c1ccc(Nc2ncc(-c3cn[nH]c3)n3ncnc23)cc1 [Compound 137] | – | > 1 |
| 0.501 to 1 | O=C(c1ccc(Nc2ncc(-c3cn[nH]c3)n3ncnc23)cc1)N1CCN(c2ccccc2)CC1 [Compound 145] | – | > 1 |
| > 1 | O=C(NCc1cccnc1)c1ccc(Nc2ncc(-c3cc[nH]c(=O)c3)n3ncnc23)cc1 [Compound 119, 4-(5-(2-Oxo-1,2-dihydropyridin-4-yl)-[1,2,4]triazolo[1,5-a]pyrazin-8-ylamino)-N-(pyridin-3-ylmethyl)benzamide] | – | > 1 |
| > 1 | COc1cc(Nc2ncc(-c3cn[nH]c3)n3ncnc23)ccc1C(=O)NCc1ccc(C)nc1 [Compound 120, 2-Methoxy-N-(6-methylpyridin-3-yl)methyl-4-[5-(1H-pyrazol-4-yl)-[1,2,4]triazolo[1,5-a]pyrazin-8-ylamino]-benzamide] | – | > 1 |
| > 1 | COc1cc(Nc2ncc(-c3csc(C(N)=O)c3)n3ncnc23)ccc1C(=O)NCc1ccccc1 [Compound 132] | – | > 1 |
| 0.501 to 1 | CNC(=O)C1CCN(C(=O)c2ccc(Nc3ncc(-c4cn[nH]c4)n4ncnc34)cc2)CC1 [Compound 136] | – | > 1 |
| > 1 | CC(C)N1CCN(c2ccc(Nc3ncc(-c4cn[nH]c4)n4ncnc34)cn2)CC1 [Compound 43, [6-(4-Isopropylpiperazin-1-yl)pyridin-3-yl]-[5-(1H-pyrazol-4-yl)-[1,2,4]triazolo[1,5-a]pyrazin-8-yl]amine] | > 1 | – |
| > 1 | O=C(NCCc1ccc(O)cc1)c1ccc(Nc2ncc(-c3cn[nH]c3)n3ncnc23)cc1 [Compound 151] | – | > 1 |
